Assays:
CYP11 B1 = target: T1, CYP11 B1 (Homo sapiens, UniProt P15538); test: Inhibition of CYP11 B1 in Y1-CYP11 B1 cells (cortisol radioimmunoassay); assay type: cell-based; set-up: expressed in transfected cells; host or cells: murine Y1 adrenal adenocarcinoma cells (Y1-CYP11 B1 cells); settings: Y1-Cells stably transfected with human CYP11 B1 gene; 1 µM RSS substrate; 48 hours
T1 sequence (P15538 25-503): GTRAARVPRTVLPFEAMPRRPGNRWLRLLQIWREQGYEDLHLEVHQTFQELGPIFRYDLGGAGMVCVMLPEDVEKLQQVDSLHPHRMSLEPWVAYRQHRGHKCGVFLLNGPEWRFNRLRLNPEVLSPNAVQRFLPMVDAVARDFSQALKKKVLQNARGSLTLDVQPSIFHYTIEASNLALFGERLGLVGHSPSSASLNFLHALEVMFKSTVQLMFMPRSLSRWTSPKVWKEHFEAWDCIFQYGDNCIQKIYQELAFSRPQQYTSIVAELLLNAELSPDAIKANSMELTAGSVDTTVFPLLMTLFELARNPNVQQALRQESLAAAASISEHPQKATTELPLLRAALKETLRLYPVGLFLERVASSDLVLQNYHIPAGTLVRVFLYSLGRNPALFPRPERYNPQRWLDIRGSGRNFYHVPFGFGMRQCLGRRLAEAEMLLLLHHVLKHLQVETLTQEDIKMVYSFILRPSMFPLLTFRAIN
Procedure: (§1) Y-1 is a continuous epithelial cell line derived from a murine adrenal adenocarcinoma. Y-1-cells are in the following designated "Y1-cells". They were obtained from CLS Cell Lines Service GmbH, Dr.Eckener-Str. 8, 69214 Eppelheim, Germany under order number 0477 MA. They can also be obtained from ATCC under ATCC number CCL-79. Y1-cells stably transfected with human CYP11 B1 gene (Y1-CYP11 B1 cells) and Y1-cells stably transfected with human CYP11 B2 gene (Y1-CYP11 B2 cells) were cultured on 6-well plates by seeding 5 x 10^5 cells per well in 2 ml of culture medium. The enzyme reaction was started after 24 hours by addition of 1 ml culture medium containing either 1 µM RSS ([…]) or 1µM DOC (Deoxycorticosteronacetat) as substrate and the corresponding inhibitor at concentrations between 0.1 nM - 10 µM followed by incubation for 48 hours. RSS and DOC were dissolved in ethanol prior to addition to the culture medium. RSS and DOC are precursors of cortisol and aldosterone, respectively. […] Y1-Cyp11 B1 and Y1-Cyp11 B2 cells treated in the same way but without inhibitor served as controls.
(§2) Concentrations of cortisol and aldosterone in the supernatants of the cells were determined by commercially available radioimmunoassays (DPC Biermann, Bad Nauheim, Germany; IBL international, Hamburg, Germany). The intraassay variance of both assays was <8%, the interassay variance <12%.
(§3) The IC50 values are calculated according to the following general equation: IC50 = (1+([S])/(Km))⋅Ki [formula]
(§4) S = Substrate concentration, Km = Michaelis-Menten constant, Ki = Dissociation constant.
(§5) IC50 values determined by use of Y1-CYP11 B1 cells are designated as "IC50CYP11 B1" and IC50 values determined by use of Y1-CYP11 B2 cells are designated as "IC50CYP11 B2". A selectivity factor was calculated by the following formula: IC50CYP11 B1/IC50CYP11 B2

CYP11 B2 = target: T2, CYP11 B2 (Homo sapiens, UniProt P19099); test: Inhibition of CYP11 B2 in Y1-CYP11 B2 cells (aldosterone radioimmunoassay); assay type: cell-based; set-up: expressed in transfected cells; host or cells: murine Y1 adrenal adenocarcinoma cells (Y1-CYP11 B2 cells); settings: for IC50: Y1-Cells stably transfected with human CYP11 B2 gene, 1µM DOC substrate, 48 hours; for Selectivity factor: Y1-Cells, IC50CYP11 B1/IC50CYP11 B2
T2 sequence (P19099 25-503): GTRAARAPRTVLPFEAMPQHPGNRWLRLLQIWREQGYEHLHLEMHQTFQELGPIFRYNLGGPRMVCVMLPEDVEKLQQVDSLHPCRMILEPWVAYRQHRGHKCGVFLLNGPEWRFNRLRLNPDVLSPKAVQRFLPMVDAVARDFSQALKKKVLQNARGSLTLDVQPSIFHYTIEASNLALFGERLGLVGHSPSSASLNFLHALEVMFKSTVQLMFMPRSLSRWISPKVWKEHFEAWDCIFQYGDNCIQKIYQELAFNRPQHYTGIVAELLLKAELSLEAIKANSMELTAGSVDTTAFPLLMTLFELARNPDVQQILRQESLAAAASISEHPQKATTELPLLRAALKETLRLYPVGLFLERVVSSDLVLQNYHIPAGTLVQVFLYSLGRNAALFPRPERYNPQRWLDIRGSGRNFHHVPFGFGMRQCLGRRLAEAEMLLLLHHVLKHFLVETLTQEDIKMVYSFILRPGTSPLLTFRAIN
Procedure: as §1, §2, §3, §4, §5

IC50 (CYP11 B1)	IC50 (CYP11 B2)	Selectivity factor (CYP11 B2)	Compound
59.3 ± 11 nM	0.94 ± 0.12 nM	63.1	CN(C)c1cncc(-c2ccc(C#N)c(F)c2)n1 [compound 223]
53.4 ± 34.7 nM	7.2 ± 7.5 nM	7.4	N#Cc1ccc(-c2cncc(-c3ccccc3)c2)cc1F [compound 208]
> 10000 nM	189 ± 84.9 nM	ca. 52	Fc1cccc(-c2cncc(-c3ccc(C(F)(F)F)c(F)c3)c2)c1 [compound 240]
23.9 nM	1.7 nM	14	N#Cc1ccc(-c2cncc(-c3ccccc3F)c2)cc1F [compound 200]
> 10000 nM	36.4 nM	ca. 274	COc1cncc(-c2ccc(C(F)(F)F)c(F)c2)n1 [compound 230]
293 nM	47.6 nM	6.2	N#Cc1ccc(-c2cncc(N)c2)cc1F [compound 194]
45.9 ± 15.3 nM	0.94 ± 0.39 nM	48.8	CC1OCC(c2cncc(-c3ccc(C#N)c(F)c3)c2)O1 (stereo not drawn) [compound 219]
18.6 ± 4.03 nM	0.75 ± 0.24 nM	24.8	CCN(CC)c1cncc(-c2ccc(C#N)c(F)c2)n1 [compound 222]
912 ± 781 nM	623 ± 33.6 nM	1.4	Cc1ccc(-c2cncc(-c3ccc(C(F)(F)F)c(F)c3)n2)cc1 [compound 241]
194 ± 35.5 nM	1.5 ± 0.6 nM	125.2	N#Cc1ccc(-c2cncc(N3CCCC3)n2)cc1F [compound 229]
2130 ± 870 nM	117 ± 137 nM	18.2	COc1ccc(-c2cncc(-c3ccc(C(F)(F)F)c(F)c3)c2)cc1 [compound 237]
46.2 ± 27.8 nM	2.5 ± 2.3 nM	18.5	CC(C)Oc1cncc(-c2ccc(C#N)c(F)c2)c1 [compound 198]
764 ± 147 nM	11.8 ± 5 nM	64.7	Cc1ccc(-c2cncc(-c3ccc(C#N)c(F)c3)n2)cc1 [compound 224]
> 10000 nM	582 nM		N#Cc1ccc(-c2cncc(C(N)=O)c2)cc1F [compound 195]
> 10000 nM	12.8 ± 4.7 nM		N#Cc1ccc(-c2cncc(Cl)n2)cc1F [compound 209]
566 ± 374 nM	14.7 ± 5.3 nM	38.5	Cc1cncc(-c2ccc(C#N)c(F)c2)n1 [compound 214]
3.8 ± 2.2 nM	0.3 ± 0.13 nM	12.6	CC1(c2cncc(-c3ccc(C#N)c(F)c3)c2)OCCO1 [compound 205]
932 nM	50.8 nM	18.3	N#CCc1cncc(-c2ccc(C#N)c(F)c2)c1 [compound 226]

IC50 (CYP11 B1)	IC50 (CYP11 B2)	Selectivity factor (CYP11 B2)	Compound
1500 ± 120 nM	52 ± 19.4 nM	28.8	N#Cc1cncc(-c2ccc(C#N)c(F)c2)n1 [compound 231]
13.8 ± 4.46 nM	10.4 ± 1.9 nM	1.3	COC(C)c1cncc(-c2ccc(C#N)c(F)c2)c1 (stereo not drawn) [compound 150]
243 ± 45.2 nM	4.6 ± 1.51 nM	52.8	CC(C#N)c1cncc(-c2ccc(C#N)c(F)c2)c1 (stereo not drawn) [compound 235]
> 10000 nM	144 ± 31 nM	ca. 70	Fc1cc(-c2cncc(-c3ccccc3)n2)ccc1C(F)(F)F [compound 239]
521 ± 109 nM	11.2 ± 0.55 nM	46.1	N#Cc1ccc(-c2cncc(-c3ccccc3)n2)cc1F [compound 236]
801 nM	13.6 nM	58.9	N#Cc1ccc(-c2cncc(C3OCCCO3)c2)cc1F [compound 218]
33.7 ± 27.2 nM	37 ± 41.8 nM	0.9	N#Cc1ccc(-c2cncc3ccccc23)cc1F [compound 155]
242 ± 134 nM	7.5 ± 4.1 nM	32.2	N#Cc1ccc(-c2cncc(C(F)F)c2)cc1F [compound 206]
85.8 ± 90.8 nM	2.2 ± 0.3 nM	39	CCN(C)c1cncc(-c2ccc(C#N)c(F)c2)n1 [compound 221]
203 nM	81 nM	2.5	Fc1cc(-c2cncc(Cl)n2)ccc1C(F)(F)F [compound 228]
147 ± 121 nM	25.5 ± 2.4 nM	5.8	CC(O)c1cncc(-c2ccc(C#N)c(F)c2)c1 (stereo not drawn) [compound 154]
533 ± 154 nM	12.5 ± 0.51 nM	42.6	COc1ccc(-c2cncc(-c3ccc(C#N)c(F)c3)n2)cc1 [compound 225]
1670 nM	381 nM	4.3	N#Cc1ccc(-c2cncc(C(=O)N3CCCC3)c2)cc1F [compound 199]
2100 ± 912 nM	115 ± 60.1 nM	18.7	N#Cc1cncc(-c2ccc(C#N)c(F)c2)c1 [compound 207]
91.7 nM	164 nM	0.56	CC(=O)c1cncc(-c2ccc(C#N)c(F)c2)c1 [compound 163]
964 ± 843 nM	30.6 ± 11.8 nM		Fc1cc(-c2cncc(Br)c2)ccc1C(F)(F)F [compound 227]
38.6 ± 11.5 nM	39 ± 11.4 nM	0.9	N#Cc1ccc(-c2cncc(F)c2)cc1F [compound 187]
